Results on 16 molecules are retold here after patent publication US20040063662A1, “Selenophene anti-tumor agents” (priority 1996, published 2004).

Data set [1] concerns ras-transformed human bronchial epithelial cells (TBE). Description: Selective cytotoxicity microculture assay, ras-transformed bronchial epithelial cells. It counts as cell-based.
The test system of data set [2] is human renal carcinoma cells (A-498). Description: Selective cytotoxicity microculture assay, human renal carcinoma.
Data set [3] relates to normal human renal cells (RPTEC). Description: Selective cytotoxicity microculture assay, normal human renal cells. Format: cell-based.
Data set [4] has as its target T1, 50:50 mixture of recombinant mouse PKCα and mouse PKCβ2.
T1 construct: The enzymes are expressed in Sf9 insect cells from recombinant baculovirus and partially purified on DEAE-cellulose and Sephacryl 200 gel filtration
Put plainly: Protein Kinase C (PKC) screening assay. Particulars: Inhibition of Protein Kinase C. Format: biochemical. An excerpt:
The Protein Kinase C (PKC) screening assay utilized in the following experiments is similar to standard PKC assays used by many investigators. Its primary features are that 1) the assay utilizes a 50:50 mixture of recombinant mouse PKCα and mouse PKCβ2; 2) employs histone as phosphate-accepting substrate; and 3) the PKC enzymatic activity is activated with phosphatidylserine, TPA and low concentration of calcium, so that both calcium and TPA are somewhat limiting for the extent of activation. In this manner the assay is sensitive to inhibitors of PKC activation. A more detailed description of the assay is provided in the following paragraphs.
The recombinant PKC formulation is a mixture (equal parts by activity) of mouse PKCα and mouse PKCβ2. The enzymes are expressed in Sf9 insect cells from recombinant baculovirus and partially purified on DEAE-cellulose and Sephacryl 200 gel filtration. Sufficient PKC is added to each reaction to provide approximately 4 pmols phosphate transferred in 30 minute (per total reaction.) The reaction is linear over the time when 4 pmols of phosphate is transferred and the reaction remains linear well beyond this time frame.
The PKC screening assay is performed in 96 well polystyrene U bottom micro titer plates, in a total reaction volume of 50 ul. Solution manipulations are performed during the assay utilize a Rainin, motorized EDP-plus M8 eight-channel micropipettor.
In some cases 50% DMSO:water, water, or methanol is substituted (if essential) for the solvent. At least 25 μl of the highest concentration sample to be assayed is transferred to a well in a 96 well U-bottom polystyrene assay plate. Serial 5-fold or 10-fold dilutions (depending on the dose-range desired) are made using the EDP-plus M8 eight-channel pipettor in dilute mode and mixing by repipetting. Using the 8-channel pipettor, 2 μl of each dilution is transferred to the appropriate wells of the plate(s) to be used for each assay. Duplicate assays are performed for each dose, with each assay, allowing six wells (half the row) for three-dose assays, or 12 wells (the whole row) for six-dose assays. In general, extracts and fractions are assayed at three doses: 400, 40 an 4 ug/ml, while pure compounds are tested at six doses: 400, 80, 16, 3.2, 0.64, 0.128 ([…]).

Data set [5] is described as follows: Selective cytotoxicity microculture assay, human renal carcinoma. Particulars: human, SCI (selectively cytotoxicity index), GI50 (RPTEC)/GI50 (A-498).
Data set [6] in a line: In vivo activity of glycoside prodrug (preliminary). Particulars: preliminary results. An excerpt: (§1) a. […] Scheme 8 illustrates a procedure utilized for the synthesis of glucoside, galactoside or, glucuronic acid analogs of α-terselenophene: [drawing 60]
Data set [7] is described as follows: In vitro activity of glycoside prodrug (preliminary). It counts as cell-based. The conditions noted are these: preliminary results.
From the text: as §1

[8] abbreviates: Homo sapiens, Epithelial cell, read-out: GI50.
Where [9] appears, read: Homo sapiens, A498, A-498 human renal carcinoma.
[10] abbreviates: Homo sapiens, RPTEC, read-out: GI50.

≈ marks a conversion by molar mass, not a printed value. Where “and” joins values, the source holds several entries; their conditions need not be identical. Identical values can stand only once. Like-named read-outs stand apart in the source and are kept apart here.

In general, melting point refers to the temperature of the solid-liquid transition. The molecule `c1csc(-c2ccc(-c3ccc[se]3)s2)c1` showed a melting point of 103 to 104 °C.
Usually GI50 stands for the concentration giving 50% growth inhibition. With `COc1cccc2c1C(=O)c1c(O)c3c(c(O)c1C2=O)C[C@@](O)(C(=O)CO)C[C@@H]3O[C@H]1C[C@H](N)[C@H](O)[C@H](C)O1` [compound 123127], the GI50 in data set [1] was 0.03 µg/mL (≈ 0.0552 µM); in data set [2] (A-498 human renal carcinoma) it was 0.05 µg/mL (≈ 0.092 µM); in data set [3], 0.05 µg/mL (≈ 0.092 µM). Besides, the “SCI (selectively cytotoxicity index)” value in data set [2] (GI50 (RPTEC)/GI50 (A-498)) came out at 1.
A word on the IC50: it is the midpoint of a concentration-inhibition curve. As to `c1c[se]c(-c2ccc(-c3ccc[se]3)[se]2)c1` [compound 674973], the GI50 in data set [1] (setting [8]) worked out at 4 µg/mL (≈ 10.3 µM); in data set [2] (setting [9]) it was 3 µg/mL (≈ 7.71 µM); in data set [3] (setting [10]), 4 µg/mL (≈ 10.3 µM). Also, in data set [4], the IC50 is listed as 7 × 10^0 μg/ml. For the same molecule, in data set [5], the selectivity ratio worked out at 1.
In the case of `O=Cc1ccc(-c2ccc(-c3ccc[se]3)[se]2)[se]1` [compound 675244], in data set [4], the IC50 is listed as 1 × 10^0 μg/ml.
Same read-out and setting: next, `O=Cc1ccc(-c2ccc(-c3ccc(C=O)[se]3)[se]2)[se]1` [compound 675245]: 1 × 10^0 μg/ml.
As for `OCc1ccc(-c2ccc(-c3cccs3)[se]2)s1` [compound 675344], the GI50 in data set [1] is <10^−2 μg/ml and 7 × 10^−6 μg/ml; in data set [2] (A-498 human renal carcinoma), 3e-07 µg/mL and 6e-08 µg/mL. In addition, in data set [4], the IC50 worked out at 50 µg/mL (≈ 154 µM). Moreover, in data set [5], the selectivity ratio was over 1000.
Take `O=Cc1ccc(-c2ccc(-c3ccc(C=O)s3)[se]2)s1` [compound 675345]: in data set [4], the IC50 stood at 0.9 µg/mL (≈ 2.56 µM).
`O=Cc1ccc(-c2ccc(-c3cccs3)[se]2)s1` [compound 675346]: in data set [4], the IC50 is 0.5 µg/mL (≈ 1.55 µM).
As to `c1csc(-c2ccc(-c3cccs3)[se]2)c1` [compound 675347], the values for the GI50 in data set [1] (setting [8]), in data set [2] (setting [9]) and in data set [3] (setting [10]) were 10 µg/mL (≈ 33.9 µM), 30 µg/mL (≈ 102 µM) and 20 µg/mL (≈ 67.7 µM), respectively. Also, the IC50 in data set [4] is listed as 1 × 10^0 μg/ml. In addition, the selectivity ratio in data set [5] was under 1.
Consider `c1c[se]c(-c2ccc(-c3ccc[se]3)s2)c1` [compound 676628], for which the GI50 was found to be 100 µg/mL (≈ 292 µM) in data set [1] (setting [8]), 80 µg/mL (≈ 234 µM) in data set [2] (setting [9]) and 400 µg/mL (≈ 1170 µM) in data set [3] (setting [10]). Besides, the IC50 in data set [4] is on record as 1 × 10^0 μg/ml. Besides, in data set [5], the selectivity ratio amounted to 5.
Regarding `O=Cc1ccc(-c2ccc(-c3ccc[se]3)s2)[se]1` [compound 676629], the IC50 in data set [4] was determined as 0.2 µg/mL (≈ 0.54 µM).
As for `O=Cc1ccc(-c2ccc(-c3ccc(C=O)[se]3)s2)[se]1` [compound 676630], in data set [4], the IC50 turned out to be 0.9 µg/mL (≈ 2.26 µM).
Turning to `c1c[se]c(-c2ccc(-c3ccc[se]3)[nH]2)c1` [compound 676633], the values for the GI50 in data set [1] (setting [8]), in data set [2] (setting [9]) and in data set [3] (setting [10]) were 10 µg/mL (≈ 30.8 µM), 100 µg/mL (≈ 308 µM) and 20 µg/mL (≈ 61.5 µM), respectively. The IC50 in data set [4] is reported as 6 × 10^0 μg/ml. Besides, in data set [5], the selectivity ratio is under 1.
Consider `O=Cc1ccc(-c2ccc(-c3ccc[se]3)[nH]2)[se]1` [compound 676634], for which the GI50 was 0.0003 µg/mL and 0.006 µg/mL in data set [1]; 0.0006 µg/mL and 0.003 µg/mL in data set [2] (A-498 human renal carcinoma). Further, in data set [4], the IC50 was determined as 0.8 µg/mL (≈ 2.27 µM).
Turning to `OCc1ccc(-c2ccc(-c3ccc[se]3)[nH]2)[se]1` [compound 676635], the GI50 was 20 µg/mL (≈ 56.3 µM) in data set [1] (setting [8]), under 0.001 µg/mL in data set [2] (setting [9]) and 2 µg/mL (≈ 5.63 µM) in data set [3] (setting [10]). In addition, the IC50 in data set [4] is on record as 8 × 10^0 μg/ml. For the same molecule, in data set [5], the selectivity ratio was over 1000.
As to `OC[C@H]1O[C@@H](OCc2ccc(-c3ccc(-c4cccs4)s3)s2)[C@H](O)[C@@H](O)[C@@H]1O` [β-D-glucoside of 2-hydroxymethyl-α-terthiophene], the in vivo activity result in data set [6] is “retains”. In data set [7], the in vitro activity result is on record as “retains”.
